Test results taken from patent US20160213647A1, “COMPOSITIONS AND METHODS FOR INHIBITING VIRAL INFECTION” (priority 2015, published 2016).
≈ marks a conversion by molar mass, not a printed value. Where two headings read alike, the source gives them in different places.

Experiments:
Human cytomegalovirus = assay: microbe, parasite or virus in culture; format: cell-based; settings: Human betaherpesvirus 5
Rabies Virus = assay: microbe, parasite or virus in culture; format: cell-based; settings: Lyssavirus rabies
Norovirus = assay: microbe, parasite or virus in culture; format: cell-based
A/Udorn/72 (H3N2) = assay: microbe, parasite or virus in culture; format: cell-based; settings: Influenza A virus, H3N2, HEK-293T; read-out: EC50
[1] = Cytotoxicity (CC50) in the in vitro viral screen; format: cell-based; settings: African green monkey, MA-104 cells; listed as Respiratory Syncytial Virus A2; visual
Source text: (§1) The results of an exemplary in vitro screen of the activity of AR-12 against various viruses is summarized below.

MA-104 = assay: Cytotoxicity (CC50) in the in vitro viral screen; format: cell-based; settings: listed as Respiratory Syncytial Virus A2; neutral red
Source text: as §1

DENV-1 = assay: Virus yield reduction assay by qRT-PCR in Vero cells; format: cell-based; settings: Dengue virus, DENV1, Vero, 48 h, read-out: Antiviral Activity IC50
[2] = long term oral exposures up to 33 weeks; cited from earlier work
JUNV strain XJCl3 = assay: microbe, parasite or virus in culture; settings: Mammarenavirus juninense, A549, 48 h
JUNV strain Candid-1 = assay: microbe, parasite or virus in culture; settings: Mammarenavirus juninense, A549, 48 h
HIV-1 isolate NL4-3 = assay: microbe, parasite or virus in culture; settings: Human immunodeficiency virus 1, NL43, PBMC
CHIKV 899 wild-type = assay: Chikungunya virus-induced cell death (CPE, MTS/PMS) assay in Vero A cells

NCC(=O)Nc1ccc(-n2nc(C(F)(F)F)cc2-c2ccc3c(ccc4ccccc43)c2)cc1 [AR-12, 2-amino-N-(4-(5-(phenanthren-2-yl)-3-(trifluoromethyl)-1H-pyrazol-1-yl)phenyl)acetamide]
EC50 (Human cytomegalovirus): > 2400 nM | EC90 (Human cytomegalovirus): > 2400 nM | EC50 (Rabies Virus): 2610 nM | EC50 (Norovirus): 718 nM | EC90 (Norovirus): 8100 nM | EC50 (A/Udorn/72 (H3N2)): 330 nM | CC50 [1]: 3.2 µg/mL (≈ 6.95 µM) | CC50 (neutral red) (MA-104): 3.2 (visual), 3.2 | IC50 (DENV-1): 640 nM | safety profile [2]: acceptable safety profile | EC50 (JUNV strain XJCl3): 550 ± 50 nM | EC50 (JUNV strain Candid-1): 150 ± 20 nM | IC90 (HIV-1 isolate NL4-3): 749 nM | IC90 (HIV-1 isolate NL4-3; read-out: IC50): 2170 nM | selectivity index (CHIKV 899 wild-type; CC50/EC50, wild-type ChikV): 5.8 | EC50 (CHIKV 899 wild-type; Chikungunya virus, Vero, read-out: EC50 WT): 1100 ± 500 nM
